Data: patent US20230406831A1, “COMPOUNDS AND METHODS OF INHIBITING BACTERIAL CHAPERONIN SYSTEMS” (THE TRUSTEES OF INDIANA UNIVERSITY, priority 2020, published 2023)
Read-outs that look alike come from different tables or passages of the source.

Columns and labels:
GroEL/ES = target: T1, GroEL/ES (Escherichia coli, UniProt P0A6F5); assay: GroEL/ES-mediated dMDH refolding assay; type: biochemical, E. coli
T1 construct: made in house; host or cells: GroEL in E. coli DH5a; GroES in E. coli BL21 (DE3)
T1 sequence (P0A6F5 2-548): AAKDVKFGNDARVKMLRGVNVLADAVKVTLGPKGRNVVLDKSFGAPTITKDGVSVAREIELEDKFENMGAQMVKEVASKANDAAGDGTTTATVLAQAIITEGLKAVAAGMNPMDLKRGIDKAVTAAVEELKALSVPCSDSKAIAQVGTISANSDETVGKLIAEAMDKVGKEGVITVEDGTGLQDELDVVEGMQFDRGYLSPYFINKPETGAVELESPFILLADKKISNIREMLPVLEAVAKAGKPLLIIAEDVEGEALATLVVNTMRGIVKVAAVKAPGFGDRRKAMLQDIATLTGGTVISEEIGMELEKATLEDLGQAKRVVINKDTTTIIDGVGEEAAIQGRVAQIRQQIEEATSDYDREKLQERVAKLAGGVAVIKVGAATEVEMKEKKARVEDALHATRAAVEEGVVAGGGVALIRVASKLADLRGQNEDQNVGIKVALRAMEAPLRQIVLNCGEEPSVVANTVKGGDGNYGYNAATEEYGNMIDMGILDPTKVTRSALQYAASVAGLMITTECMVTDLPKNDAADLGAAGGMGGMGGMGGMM
Procedure: (§1) Evaluation of compounds ability to inhibit GroEL/ES and HSP60/10-mediated dMDH refolding assays.
(§2) Reagent preparation: For these assays, four primary reagent stocks were prepared: 1) GroEL/ES-dMDH or HSP60/10-dMDH binary complex stock; 2) ATP initiation stock; 3) EDTA quench stock; 4) MDH enzymatic assay stock. Denatured MDH (dMDH) was prepared by 2-fold dilution of MDH (5 mg/ml, soluble pig heart MDH from Roche, product #10127248001) with denaturant buffer (7 M guanidine-HCl, 200 mM Tris, pH 7.4, and 50 mM DTT). MDH was completely denatured by incubating at room temperature for 45 min. The binary complex solutions were prepared by slowly adding the dMDH stock to a stirring stock with GroEL (or HSP60) in folding buffer (50 mM Tris-HCl, pH 7.4, 50 mM KCl, 10 mM MglC2, and 1 mM DTT), followed by addition of GroES (or HSP10). The binary complex stocks were prepared immediately prior to dispensing into the assay plates and had final protein concentrations of 83.3 nM GroEL (Mr 800 kDa) or HSP60 (Mr 400 kDa), 100 nM GroES or HSP10 (Mr 70 kDa), and 20 nM dMDH in folding buffer. For the ATP initiation stock, ATP solid was diluted into folding buffer to a final concentration of 2.5 mM. Quench solution contained 600 mM EDTA (pH 8.0). The MDH enzymatic assay stock consisted of 20 mM sodium mesoxalate and 2.4 mM NADH in reaction buffer (50 mM Tris-HCl, pH 7.4, 50 mM KC1, and 1 mM DTT).
(§3) Assay Protocol: First, 30 μL aliquots of the GroEL/ES-dMDH or HSP60/10-dMDH binary complex stocks were dispensed into clear, 384-well polystyrene plates. Next, 0.5 μL of the compound stocks (10 mM to 4.6 μM, 3-fold dilutions series in DMSO) were added by pin-transfer (V&P Scientific). The chaperonin-mediated refolding cycles were initiated by addition of 20 IA of ATP stock (reagent concentrations during refolding cycle: 50 nM GroEL or HSP60, 60 nM GroES or HSP10, 12 nM dMDH, 1 mM ATP, and compounds of 100 μM to 46 nM, 3-fold dilution series). The refolding reactions were incubated at 37° C. The incubation time was determined from refolding time-course control experiments until they reached ˜90% completion of refolding cycle — generally ˜20-40 min for GroEL/ES, and ˜40-60 min for HSP60/10). Next, the assay was quenched by addition of 10 μL of the EDTA to final concentration of 100 mM. […] A340 nm measurements were recorded at 0.5 minutes (start point) and at successive time points until the amount of NADH consumed reached ˜90% (end point, generally between 20-35 minutes). The differences between the start and end point A340 values were used to calculate the % inhibition of the GroEL/ES or HSP60/10 machinery by the compounds. IC50 values for the test compounds were obtained by plotting the % inhibition results in GraphPad Prism 6 and analyzing by non-linear regression using the log (inhibitor) vs. response (variable slope) equation. Results presented represent the averages of IC50 values obtained from at least quadriplicate (duplicate of duplicate) replicates. For results, see Tables 1, 2, and 3.

[1] = HEK 293 kidney cell viability / cytotoxicity assay (Alamar Blue); type: cell-based; details: human
Procedure: Evaluating compound effects on kidney cell viability.
HEK 293 cells were maintained in MEM medium (Corning Cellgro, 10-009 CV) supplemented with 10% FBS (Sigma, F2242). […] Cells at 80% confluence were harvested and diluted in growth medium, then 45 μL of the HEK 293 cells (1,500 cells/well) were dispensed per well, and plates were sealed with “Breathe Easy” oxygen permeable membranes (Diversified Biotech) and incubated at 37° C., 5% CO2, for 24 h. […] Plates were sealed with “Breathe Easy” oxygen permeable membranes and incubated for an additional 48 h at 37° C. and 5% CO2. The Alamar Blue reporter reagents were then added to a final concentration of 10%, the plates incubated at 37° C. and 5% CO2, and sample fluorescence (535 nm excitation, 590 nm emission) was read using a Molecular Devices FlexStation II 384-well plate reader (readings taken between 4-24 h of incubation so as to achieve signals in the 30-60% range for conversion of resazurin to resorufin). Cell viability was calculated as per vendor instructions (Thermo Fisher—Alamar Blue cell viability assay manual).

HSP60/10 = target: T2, HSP60/10 (Homo sapiens, UniProt P10809); assay: HSP60/10-mediated dMDH refolding assay; type: biochemical
T2 construct: octa-Histidine (His8) tag, TEV-cleavable (N, cleaved yes); made in house; host or cells: HSP60 in Rosetta 2 (DE3) E. coli; HSP10 in Rosetta 2 (DE3) pLysS
T2 sequence (P10809 27-573): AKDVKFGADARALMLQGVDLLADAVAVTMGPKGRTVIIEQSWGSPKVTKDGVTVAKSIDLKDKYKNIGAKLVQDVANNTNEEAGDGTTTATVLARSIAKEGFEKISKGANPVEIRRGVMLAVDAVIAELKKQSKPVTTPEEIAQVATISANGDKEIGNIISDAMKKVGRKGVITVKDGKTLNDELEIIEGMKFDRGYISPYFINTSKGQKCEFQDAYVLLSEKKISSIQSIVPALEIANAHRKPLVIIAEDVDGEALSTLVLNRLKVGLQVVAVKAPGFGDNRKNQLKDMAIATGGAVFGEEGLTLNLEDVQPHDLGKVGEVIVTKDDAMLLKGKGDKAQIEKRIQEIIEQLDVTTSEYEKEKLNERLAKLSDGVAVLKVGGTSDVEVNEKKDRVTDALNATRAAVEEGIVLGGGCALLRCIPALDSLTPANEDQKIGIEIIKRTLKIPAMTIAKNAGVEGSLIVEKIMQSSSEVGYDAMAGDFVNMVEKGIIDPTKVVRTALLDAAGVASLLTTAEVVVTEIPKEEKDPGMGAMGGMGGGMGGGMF
Procedure: as §1, §2, §3

[2] = HEK 293 kidney cells, Table 2, 48 h incubation, Alamar Blue, read-out: HEK 293 Kidney Cell Viability CC50
[3] = Table 2, 37° C., 1 mM ATP, read-out: Biochemical Assay IC50 HSP60/10-dMDH Refolding
[4] = HEK 293 kidney cells, Table 3, 48 h incubation, Alamar Blue, read-out: HEK 293 Kidney Cell Viability CC50
[5] = Table 3, 37° C., 1 mM ATP, read-out: Biochemical Assay IC50 HSP60/10-dMDH Refolding
[6] = Table 3, 48 h incubation, Alamar Blue, read-out: HEK 293 Kidney Cell Viability CC50
[7] = Table 2, 48 h incubation, Alamar Blue, read-out: HEK 293 Kidney Cell Viability CC50
[8] = Table 1, 37° C., 1 mM ATP, read-out: Biochemical Assay IC50 HSP60/10-dMDH Refolding

Row | Compound | IC50 (GroEL/ES) | IC50 (HSP60/10; [3]) | CC50 at 48 h [1, 4] | IC50 (HSP60/10; [5]) | further results
1 | Cc1cc(C(C#N)c2ccc(Cl)cc2)c(Cl)cc1NC(=O)c1ccccc1[N+](=O)[O-] (centres unmarked) [Compound 67, N-(5-chloro-4-((4-chlorophenyl)(cyano)methyl)-2-methylphenyl)-2-nitrobenzamide] | 43 µM | > 100 µM |  |  | CC50 at 48 h [1, 2]: > 100 µM
2 | Cc1cc(C(C#N)c2ccc(Cl)cc2)c(Cl)cc1NC(=O)c1cccc(Cl)c1 (centres unmarked) [Compound 77, 3-chloro-N-(5-chloro-4-((4-chlorophenyl)(cyano)methyl)-2-methylphenyl)benzamide] | 63 µM | > 100 µM |  |  | CC50 at 48 h [1, 2]: > 100 µM
3 | O=C(Nc1ccc(O)cc1)c1cc(Cl)ccc1O [Compound 115, 5-chloro-2-hydroxy-N-(4-hydroxyphenyl)benzamide] | > 100 µM |  | > 100 µM | > 100 µM | 
4 | O=C(Nc1ccc(Oc2ccccc2)c(Cl)c1)c1cc(Cl)ccc1O [Compound 91, 5-chloro-N-(3-chloro-4-phenoxyphenyl)-2-hydroxybenzamide] | 51 µM |  |  | 22 µM | CC50 at 48 h [1, 6]: 4.7 µM
5 | COc1ccc(C(=O)Nc2cc(Cl)c(C(C#N)c3ccc(Cl)cc3)cc2C)cc1 (centres unmarked) [Compound 63, N-(5-chloro-4-((4-chlorophenyl)(cyano)methyl)-2-methylphenyl)-4-methoxybenzamide] | 65 µM | > 100 µM |  |  | CC50 at 48 h [1, 2]: > 100 µM
6 | COc1cc(Cl)ccc1C(=O)Nc1cc(Cl)c(C(C#N)c2ccc(Cl)cc2)cc1C (centres unmarked) [Compound 55, 4-chloro-N-(5-chloro-4-((4-chlorophenyl)(cyano)methyl)-2-methylphenyl)-2-methoxybenzamide] | 59 µM | > 100 µM |  |  | CC50 at 48 h [1, 7]: > 100 µM
7 | COc1ccc(Cl)cc1C(=O)Nc1ccc(Oc2ccc(Cl)cc2)cc1 [Compound 88, 5-chloro-N-(4-(4-chlorophenoxy)phenyl)-2-methoxybenzamide] | > 100 µM |  | > 100 µM | > 100 µM | 
8 | O=C(Nc1ccc(Oc2ccc(Cl)cc2)cc1)c1cc(Cl)ccc1O [Compound 89, 5-chloro-N-(4-(4-chlorophenoxy)phenyl)-2-hydroxybenzamide] | 46 µM |  |  | 45 µM | CC50 at 48 h [1, 6]: 15 µM
9 | COc1ccc(Cl)cc1C(=O)Nc1ccc(Sc2nc3ccccc3s2)cc1 [Compound 96, N-(4-(benzo[d]thiazol-2-ylthio)phenyl)-5-chloro-2-methoxybenzamide] | 59 µM |  | 56 µM | > 100 µM | 
10 | O=C(Nc1ccc(Sc2nc3ccccc3s2)c(Cl)c1)c1cc(Br)cc(Br)c1O [Compound 1, reference compound] | 2 µM |  |  |  | CC50 at 48 h ([1]; HEK 293 kidney cells, Table 1, 48 h incubation, Alamar Blue, read-out: HEK 293 Kidney Cell Viability CC50): 73 µM; IC50 (HSP60/10; [8]): 3.7 µM
11 | O=C(Nc1ccc(Oc2ccc(Cl)cc2)c(Cl)c1)c1cc(I)cc(I)c1O [Rafoxanide, reference compound] |  |  |  |  | IC50 (GroEL/ES; Table 1, 37° C., 1 mM ATP, read-out: Biochemical Assay IC50 GroEL/ES-dMDH Refolding): 3.8 µM; CC50 at 48 h ([1]; Table 1, 48 h incubation, Alamar Blue, read-out: HEK 293 Kidney Cell Viability CC50): 82 µM; IC50 (HSP60/10): 2.7 µM
12 | COc1ccc(Cl)cc1C(=O)Nc1ccc(Cc2ccccc2)cc1 [Compound 98, N-(4-benzylphenyl)-5-chloro-2-methoxybenzamide] | > 100 µM |  | > 100 µM | > 100 µM | 
13 | Cc1cc(C(C#N)c2ccc(Cl)cc2)c(Cl)cc1NC(=O)c1ccccc1Br (centres unmarked) [Compound 73, 2-bromo-N-(5-chloro-4-((4-chlorophenyl)(cyano)methyl)-2-methylphenyl)benzamide] | 53 µM | > 100 µM |  |  | CC50 at 48 h [1, 7]: > 100 µM
14 | O=C(Nc1ccc(Sc2nc3ccccc3s2)cc1)c1cc(Cl)ccc1O [Compound 97, N-(4-(benzo[d]thiazol-2-ylthio)phenyl)-5-chloro-2-hydroxybenzamide] | 24 µM |  | 28 µM | 59 µM | 
15 | COc1ccccc1C(=O)Nc1cc(Cl)c(C(C#N)c2ccc(Cl)cc2)cc1C (centres unmarked) [Compound 61, N-(5-chloro-4-((4-chlorophenyl)(cyano)methyl)-2-methylphenyl)-2-methoxybenzamide] | 72 µM | > 100 µM |  |  | CC50 at 48 h [1, 2]: > 100 µM
16 | Cc1cc(C(C#N)c2ccc(Cl)cc2)c(Cl)cc1NC(=O)c1cc(I)cc(I)c1O (centres unmarked) [Closantel, reference compound] |  |  |  |  | CC50 at 48 h [1]: 79 µM; IC50 (HSP60/10; [8]): 3 µM
